Target: Mitogen-activated protein kinase kinase kinase kinase 1 (Homo sapiens, UniProt Q92918)
Assay: HPK1 Inhibition Assay
Procedure: A stock solution of 10 mM test compound was prepared in DMSO. The compound was prepared by 5-fold and 10-point serial dilutions with HPK1 kinase assay buffer. The HPK1 kinase assay buffer contained 40 mM Tris, pH 7.5; 20 mM MgCl2, 0.1 mg/ml BSA, and 50 μM DTT. 7.5 ng/μl of Active HPK1 (Promega, V4098) and 0.1 μg/ml MBP substrate protein were added to the reaction system. The final concentration of ATP in the HPK1 kinase reaction system was 10 μM. Serial diluted compounds were transferred to the reaction system and incubated at room temperature for 1 hr. 5 μL of ADP-Glo™ Reagent (Promega, V9101) was added and incubated for 40 min to stop the kinase reaction and deplete the unconsumed ATP. […] The luminescence was measured with a plate-reading luminometer.

Sequence of Mitogen-activated protein kinase kinase kinase kinase 1 (Q92918 whole entry): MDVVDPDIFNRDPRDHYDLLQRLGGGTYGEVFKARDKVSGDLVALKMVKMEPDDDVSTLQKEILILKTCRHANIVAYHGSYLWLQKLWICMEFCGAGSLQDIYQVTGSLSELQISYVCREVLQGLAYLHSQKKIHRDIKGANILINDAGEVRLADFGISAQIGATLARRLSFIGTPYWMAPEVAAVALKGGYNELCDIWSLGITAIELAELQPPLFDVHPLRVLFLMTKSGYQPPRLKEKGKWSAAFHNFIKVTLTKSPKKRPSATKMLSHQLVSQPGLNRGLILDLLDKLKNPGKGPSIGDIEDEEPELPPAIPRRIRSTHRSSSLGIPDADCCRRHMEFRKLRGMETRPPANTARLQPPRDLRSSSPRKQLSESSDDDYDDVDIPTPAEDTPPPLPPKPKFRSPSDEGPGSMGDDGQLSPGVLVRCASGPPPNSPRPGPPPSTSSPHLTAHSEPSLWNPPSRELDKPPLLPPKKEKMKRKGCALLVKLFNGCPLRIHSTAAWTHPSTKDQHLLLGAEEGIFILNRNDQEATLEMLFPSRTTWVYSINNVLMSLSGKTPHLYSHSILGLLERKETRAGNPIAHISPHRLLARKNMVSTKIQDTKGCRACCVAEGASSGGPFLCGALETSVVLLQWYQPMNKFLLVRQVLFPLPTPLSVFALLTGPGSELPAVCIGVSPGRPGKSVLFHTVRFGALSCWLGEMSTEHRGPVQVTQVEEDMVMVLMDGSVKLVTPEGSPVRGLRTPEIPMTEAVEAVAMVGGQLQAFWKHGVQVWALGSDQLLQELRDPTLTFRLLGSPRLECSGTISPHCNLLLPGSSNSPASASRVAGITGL

Row | SMILES | IC50
1 | Cc1nc2c(N3CC[C@@H](N)C3)c(NC(=O)c3ccc(=O)n(-c4c(Cl)cccc4Cl)n3)ccc2n1C [US20250122174, Example 108] | < 100 nM
2 | CC(C)c1nc2c(N3CC[C@H]4NCC[C@H]43)c(NC(=O)c3ccc(=O)n(-c4c(F)cccc4F)n3)ccc2n1C [US20250122174, Example 135] | < 100 nM
3 | Cc1nc2c(N3CCNC(=O)C3)c(NC(=O)c3ccc(=O)n(-c4c(F)cccc4F)n3)ccc2n1C [US20250122174, Example 83] | < 100 nM
4 | CC(C)n1ncc2c(N3CCC(N)CC3)c(NC(=O)c3ccc(=O)n(-c4c(F)cccc4F)n3)ccc21 [US20250122174, Example 184] | < 100 nM

Continued, values first:

Row | IC50 | SMILES
5 | < 100 nM | Cn1c(-c2ccncc2F)nc2c(N3CCC[C@H]3CN)c(NC(=O)c3ccnn(-c4c(F)cccc4F)c3=O)ccc21 [US20250122174, Example 43]
6 | < 100 nM | Cc1nc2c(N3C[C@@H]4C[C@H]3CN4)c(NC(=O)c3ccc(=O)n(-c4c(F)cccc4F)n3)ccc2n1C [US20250122174, Example 75]
